# Source: PMC5587727 (Nucleic Acids Research, 2017)
# Biological target: hDcp2 (Homo sapiens, UniProt Q8IU60)
# Test: In vitro RNA decapping assay with hDcp2
# Type: biochemical
# Details: RNA capped with the analogue; 15 min incubation; 100 ng capped RNA, 630 nM hDcp2
row,SMILES,Decapping susceptibility (% of RNA decapping)
1,"CO[C@H]1[C@@H](O)[C@H]([n+]2cn(C)c3c(=O)[nH]c(N)nc32)O[C@@H]1COP(=O)([O-])OP(=O)(O)OP(=O)(O)OC[C@H]1O[C@@H](n2cnc3c(=O)[nH]c(N)nc32)[C@H](O)[C@@H]1O [m2^7,3′-OGpppG]",74 ± 3%
2,Cn1c[n+]([C@@H]2O[C@H](COP(=O)(O)OP(=O)([O-])OP(=O)(O)OC[C@H]3O[C@@H](n4cnc5c(=O)[nH]c(N)nc54)[C@H](O)[C@@H]3O)[C@@H](O)[C@H]2O)c2nc(N)[nH]c(=O)c21 [m^7GpppG],82 ± 2%
